Results published in patent US7989393B2, “Methods of controlling algae with thaxtomin and thaxtomin compositions” (priority 2007, dated 2011).

Assays:
algae (mix) = assay: Water and algae mix in a test tube; type: cell-based, green algae; settings: 10 mMol (2,840 ppm) in 2 ml water and algae mix
Method: Thaxtomin was added to water and algae in a test tube.
Metolachlor (2-chloro-N-(6-ethyl-o-tolyl)-N-[(1RS)-2-methoxy-1-methylethyl]acetamide) is a known pre-emergent herbicide commonly used to control annual grasses and some broadleaves such as Eastern black nightshade and pigweeds.

the tested algae = assay: Purified thaxtomin versus copper sulphate bioassay (text summary of Example 5); type: cell-based; settings: 2 ppm (commercial recommended rate); two weeks
Method: (§1) Purified thaxtomin was used for a bioassay test and its efficacy evaluated and compared with copper sulphate, an active ingredient for many copper based algaecides. The bioassay was run for two weeks and inhibition of algae growth was evaluated.

Rhodymenia spp. = assay: Bioactivity of purified thaxtomin verse CuSO4, algae growth bioassay; type: cell-based; parameters: key: ++ = visible death; + = growth inhibition; − = no visible growth inhibition; settings: 2 ppm, two weeks
Method: as §1

Oscillatoria spp. = assay: as above; type: cell-based; parameters: key: ++ = visible death; + = growth inhibition; − = no visible growth inhibition; settings: 2 ppm, two weeks
Method: as §1

Oedogonium spp. = assay: as above; type: cell-based; parameters: key: ++ = visible death; + = growth inhibition; − = no visible growth inhibition; settings: 2 ppm, two weeks
Method: as §1

Batrachospermum spp. = assay: as above; type: cell-based; parameters: key: ++ = visible death; + = growth inhibition; − = no visible growth inhibition; settings: 2 ppm, two weeks
Method: as §1

Spirogyra spp. = assay: as above; type: cell-based; parameters: key: ++ = visible death; + = growth inhibition; − = no visible growth inhibition; settings: 2 ppm, two weeks
Method: as §1

SMILES | Results: appearance of water and algae mix (algae (mix)) | efficacy against the tested organisms (the tested algae) | Bioactivity (inhibition of algae growth) (Rhodymenia spp.) | Bioactivity (inhibition of algae growth) (Oscillatoria spp.) | Bioactivity (inhibition of algae growth) (Oedogonium spp.) | Bioactivity (inhibition of algae growth) (Batrachospermum spp.) | Bioactivity (inhibition of algae growth) (Spirogyra spp.)
CCc1cccc(C)c1N(C(=O)CCl)C(C)COC (racemic) [Metolachlor, 2-chloro-N-(6-ethyl-o-tolyl)-N-[(1RS)-2-methoxy-1-methylethyl]acetamide] | did not show any algaestatic and/or algaecidal activity |  |  |  |  |  | 
O=S(=O)([O-])[O-].[Cu+2] [CuSO4, copper sulphate] |  | not very effective | − | − | − | − | +
